Measurements from ChEMBL document CHEMBL5537159, “Discovery and SAR of JTE-151: A Novel RORγ Inhibitor for Clinical Development” (J Med Chem, 2024).

Experiments:
[1] = Lipophilicity, logD of compound by RP-HPLC analysis; type: physicochemical
[2] = MRT in CD(SD) rat at 3 mg/kg, po administered as single dose and measured after 24 hrs; type: ADME, organism-based; conditions: in vivo
[3] = Volume of distribution at steady state in CD(SD) rat at 1 mg/kg, iv administered as single dose and measured after 24 hrs; type: ADME, organism-based; conditions: in vivo, read-out: Vdss
[4] = Oral bioavailability in CD(SD) rat at 3 mg/kg administered as single dose and measured after 24 hrs; type: ADME, organism-based; conditions: in vivo
[5] = Apparent permeability in human Caco-2 cells at 25 umol/L incubated for 2 hrs by LC/MS/MS analysis; type: ADME, cell-based; conditions: dose 25 µmol/L
[6] = Elimination half life in CD(SD) rat at 1 mg/kg, iv administered as single dose and measured after 24 hrs; type: ADME, organism-based; conditions: in vivo, read-out: beta t1/2 (converted)
[7] = Total body clearance in CD(SD) rat at 1 mg/kg, iv administered as single dose and measured after 24 hrs; type: ADME, organism-based; conditions: in vivo
[8] = Metabolic stability in human liver microsomes assessed as compound remaining at 5 umol/L measured after 60 mins by UPLC/MS analysis; type: ADME, Microsome; conditions: dose 5 µmol/L, read-out: Stability
[9] = AUCinfinity in CD(SD) rat at 3 mg/kg, po administered as single dose and measured after 24 hrs; type: ADME, organism-based; conditions: in vivo
[10] = molecular target: T1, Nuclear receptor ROR-gamma (Homo sapiens, UniProt P51449); assay: Inhibition of GAL4 DNA-binding domain fused RORgamma (unknown origin) transfected in CHO-K1 cells incubated for 2 days by luciferase assay; type: cell-based
T1 sequence (P51449 whole entry): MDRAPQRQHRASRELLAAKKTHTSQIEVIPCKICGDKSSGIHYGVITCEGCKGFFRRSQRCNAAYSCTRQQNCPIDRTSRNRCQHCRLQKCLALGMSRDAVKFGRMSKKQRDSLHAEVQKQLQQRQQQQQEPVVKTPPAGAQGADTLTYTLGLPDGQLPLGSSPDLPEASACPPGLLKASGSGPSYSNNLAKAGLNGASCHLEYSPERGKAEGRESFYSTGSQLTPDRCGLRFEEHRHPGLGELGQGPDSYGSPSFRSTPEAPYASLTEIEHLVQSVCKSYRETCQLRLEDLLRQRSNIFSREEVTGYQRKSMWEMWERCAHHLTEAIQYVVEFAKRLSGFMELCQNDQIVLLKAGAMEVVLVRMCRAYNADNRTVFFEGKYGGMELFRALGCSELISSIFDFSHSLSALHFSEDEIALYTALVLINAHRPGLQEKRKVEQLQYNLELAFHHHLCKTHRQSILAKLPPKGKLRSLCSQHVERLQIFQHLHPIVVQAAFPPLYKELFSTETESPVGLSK

Row | SMILES | logD [1] | MRT [2] [h] | Vd [3] [L/kg] | bioavailability [4] [%] | Papp at 2 h, 25 µM [5] [×10⁻⁶ cm/s] | half-life [6] [h] | clearance [7] [mL/min/kg] | remaining at 1 h, 5 µM [8] [%] | AUC(0-inf) [9] [µM·h] | EC50 [10] [nM]
1 | Cc1ccc(NC(=O)C[C@H](CCC(=O)O)c2nnn([C@H]3C[C@@H](CC(C)(C)C)C3)c2C2CC2)c(Cl)c1 | 4.2 | 3.6 | 0.67 | 46 | 30.9 | 1.5 | 16.5 | 86 | 2.8 | –
2 | C=C(C)c1c([C@@H](CC(=O)O)CC(=O)Nc2ccc(C)cc2C)noc1[C@H]1C[C@@H](CC(C)C)C1 | 4.3 | – | – | – | 27.6 | – | – | 54 | – | 1200
3 | Cc1ccc(NC(=O)C[C@H](CCC(=O)O)n2nnc([C@H]3C[C@@H](CC(C)(C)C)C3)c2C2CC2)c(Cl)c1 | 4.3 | 2.5 | 1.4 | 61 | 22.6 | 1.5 | 30 | 73 | 2 | 22
4 | Cc1ccc(NC(=O)C[C@H](CC(C)(C)O)c2nnc([C@H]3C[C@@H](CC(C)C)C3)n2C2CC2)c(C)c1.Cl | 4.4 | – | – | – | 25.3 | – | – | 0 | – | 30
5 | Cc1ccc(NC(=O)CC(c2nnc([C@H]3C[C@@H](CC(C)C)C3)n2C2CC2)C2CN(C)C2)c(C)c1 (mixture of isomers) | 3.8 | – | – | – | 0.7 | – | – | 78 | – | 6900
6 | Cc1ccc(NC(=O)CC(CC(=O)O)c2nnc([C@H]3C[C@@H](CC(C)C)C3)n2C2CC2)c(C)c1 (mixture of isomers) | 3.2 | – | – | – | 0.1 | – | – | 103 | – | 3000

The next lines start with the values.

Row | logD [1] | MRT [2] [h] | Vd [3] [L/kg] | bioavailability [4] [%] | Papp at 2 h, 25 µM [5] [×10⁻⁶ cm/s] | half-life [6] [h] | clearance [7] [mL/min/kg] | remaining at 1 h, 5 µM [8] [%] | AUC(0-inf) [9] [µM·h] | EC50 [10] [nM] | SMILES
7 | 4.2 | – | – | – | 35.5 | – | – | 76 | – | 65 | Cc1ccc(C)c(NC(=O)C[C@H](CC(=O)O)c2noc([C@H]3C[C@@H](CC(C)C)C3)c2C2CC2)c1
8 | 3.1 | – | – | – | 0.2 | – | – | 91 | – | 6000 | Cc1ccc(NC(=O)CC(Cc2nnn[nH]2)c2nnc([C@H]3C[C@@H](CC(C)C)C3)n2C2CC2)c(C)c1 (mixture of isomers)
9 | 4.1 | – | – | – | 21.8 | – | – | 0 | – | 63 | Cc1ccc(NC(=O)C[C@H](Cc2nnn[nH]2)c2noc([C@H]3C[C@@H](CC(C)C)C3)c2C2CC2)c(C)c1
10 | 3.9 | – | – | – | 38 | – | – | 82 | – | 64 | Cc1cc(F)ccc1NC(=O)C[C@H](CC(=O)O)c1noc([C@H]2C[C@@H](CC(C)C)C2)c1C1CC1
11 | 5 | – | – | – | 27.6 | – | – | 77 | – | 260 | Cc1ccc(NC(=O)C[C@@H](c2noc([C@H]3C[C@@H](CC(C)C)C3)c2C2CC2)C(C)(C)C(=O)O)c(C)c1
12 | 4.5 | – | – | – | 24.6 | – | – | 82 | – | 29 | Cc1ccc(NC(=O)C[C@H](CC(=O)O)c2noc([C@H]3C[C@@H](CC(C)(C)C)C3)c2C2CC2)c(C)c1 (mixture of isomers)
